# Results published in US20260048062A1, “FUSED AMINO PYRIMIDINE COMPOUNDS FOR TREATMENT OF PSYCHOSIS AND PSYCHOTIC DISORDERS” (Ovid Therapeutics Inc., priority 2024, published 2026).
# Tests used:
# [1] = system: panel of 144 protein kinases; experiment: SelectScreen panel of 144 protein kinases; assay type: biochemical; conditions: includes PKC isoforms, OSR1, SPAK (STK39), WNK
# Protocol: Aliquots of HEK-293 cells expressing KCC2 were exposed to 30 μM SSA, heated from 37-55° C. The remaining level of soluble native KCC2 at each temperature was measured by immunoblotting and normalized to the level seen at 37° C. which was given a value of 1. […] This panel included protein kinase C isoforms, OSR1, SPAK (STK39) and with-no-lysine kinases (WNK), all of which phosphorylate KCC2 on multiple residues to indirectly modify its activity (Kahle et al., 2013, supra; Smalley et al., 2020, supra).
# KCC2-S940A = molecular target: T1, KCC2-S940A (Homo sapiens, UniProt Q9H2X9, S963A); experiment: Tl+ flux assay, HEK-293 cells expressing KCC2-S940A; assay type: cell-based
# T1 construct: expressed in transfected cells; host or cells: HEK-293
# T1 sequence (Q9H2X9 1-1116 isoform Q9H2X9-2 S940A): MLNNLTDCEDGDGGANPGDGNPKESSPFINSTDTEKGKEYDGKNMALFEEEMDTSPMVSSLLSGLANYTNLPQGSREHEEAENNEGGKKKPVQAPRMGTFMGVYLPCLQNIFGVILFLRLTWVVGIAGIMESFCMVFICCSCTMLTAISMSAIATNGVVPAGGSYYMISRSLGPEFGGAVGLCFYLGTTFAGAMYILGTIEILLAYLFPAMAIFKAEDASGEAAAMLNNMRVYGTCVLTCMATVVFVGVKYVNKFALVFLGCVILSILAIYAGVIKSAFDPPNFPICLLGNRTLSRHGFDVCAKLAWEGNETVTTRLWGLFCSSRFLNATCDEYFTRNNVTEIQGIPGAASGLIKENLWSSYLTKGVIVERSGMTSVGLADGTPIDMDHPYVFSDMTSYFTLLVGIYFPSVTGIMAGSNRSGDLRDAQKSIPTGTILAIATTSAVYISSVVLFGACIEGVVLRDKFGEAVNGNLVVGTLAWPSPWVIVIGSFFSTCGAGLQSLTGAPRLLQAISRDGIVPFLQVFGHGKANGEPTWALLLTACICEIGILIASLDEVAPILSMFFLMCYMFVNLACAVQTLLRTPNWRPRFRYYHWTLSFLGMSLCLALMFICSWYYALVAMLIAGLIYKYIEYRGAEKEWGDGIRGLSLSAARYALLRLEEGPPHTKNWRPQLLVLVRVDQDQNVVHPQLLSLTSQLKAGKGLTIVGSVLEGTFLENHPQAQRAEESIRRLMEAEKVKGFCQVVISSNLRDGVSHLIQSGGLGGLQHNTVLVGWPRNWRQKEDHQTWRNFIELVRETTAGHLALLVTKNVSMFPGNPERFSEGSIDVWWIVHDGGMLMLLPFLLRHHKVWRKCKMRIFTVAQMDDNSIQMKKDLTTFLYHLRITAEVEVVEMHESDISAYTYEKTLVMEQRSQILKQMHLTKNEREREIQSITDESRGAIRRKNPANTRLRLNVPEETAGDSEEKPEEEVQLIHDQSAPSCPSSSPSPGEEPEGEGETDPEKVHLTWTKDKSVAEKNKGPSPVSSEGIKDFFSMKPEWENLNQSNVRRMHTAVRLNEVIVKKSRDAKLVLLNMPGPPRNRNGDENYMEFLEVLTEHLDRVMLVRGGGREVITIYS
# Protocol: (§1) FLIPR TI Flux assay. HEK-293 cells were washed with HBSS, and then incubated with loading buffer containing TI sensitive fluorescent dye (https://www.moleculardevices.com), 20 μM bumetanide 20 μM ouabain and 2.5 mM probenecid for 1 h at room temperature (RT) under control conditions or with drugs in the dark using a FlexStation 3 microplate reader (Molecular Devices) and imaged […] for 30 min. Stimulus buffer was added containing 5 mM K^+/0.5 mM Tl^+ and cells were imaged every 1.5 over a 190 second time course The initial rate Tl^+ uptake (Relative Fluorescence Units (RFU) per second) was determined following addition of the stimulus buffer as outlined previously (Conway et al., 2017, supra) (Lee et al., 2022, supra).
# (§2) Compared to KCC2, effects on KCC3, KCC4, and NKCC1 were only seen at concentrations more than 35-fold that of KCC2 (>100 μM) (FIG. 1G).
# KCC3 = molecular target: T2, KCC3 (Homo sapiens, UniProt Q9UHW9); experiment: Tl+ flux assay, HEK-293 cells expressing KCC3; assay type: cell-based; conditions: read-out: concentration at which effects on KCC3 were seen
# T2 construct: expressed in transfected cells; host or cells: HEK-293
# T2 sequence (Q9UHW9 1-1150): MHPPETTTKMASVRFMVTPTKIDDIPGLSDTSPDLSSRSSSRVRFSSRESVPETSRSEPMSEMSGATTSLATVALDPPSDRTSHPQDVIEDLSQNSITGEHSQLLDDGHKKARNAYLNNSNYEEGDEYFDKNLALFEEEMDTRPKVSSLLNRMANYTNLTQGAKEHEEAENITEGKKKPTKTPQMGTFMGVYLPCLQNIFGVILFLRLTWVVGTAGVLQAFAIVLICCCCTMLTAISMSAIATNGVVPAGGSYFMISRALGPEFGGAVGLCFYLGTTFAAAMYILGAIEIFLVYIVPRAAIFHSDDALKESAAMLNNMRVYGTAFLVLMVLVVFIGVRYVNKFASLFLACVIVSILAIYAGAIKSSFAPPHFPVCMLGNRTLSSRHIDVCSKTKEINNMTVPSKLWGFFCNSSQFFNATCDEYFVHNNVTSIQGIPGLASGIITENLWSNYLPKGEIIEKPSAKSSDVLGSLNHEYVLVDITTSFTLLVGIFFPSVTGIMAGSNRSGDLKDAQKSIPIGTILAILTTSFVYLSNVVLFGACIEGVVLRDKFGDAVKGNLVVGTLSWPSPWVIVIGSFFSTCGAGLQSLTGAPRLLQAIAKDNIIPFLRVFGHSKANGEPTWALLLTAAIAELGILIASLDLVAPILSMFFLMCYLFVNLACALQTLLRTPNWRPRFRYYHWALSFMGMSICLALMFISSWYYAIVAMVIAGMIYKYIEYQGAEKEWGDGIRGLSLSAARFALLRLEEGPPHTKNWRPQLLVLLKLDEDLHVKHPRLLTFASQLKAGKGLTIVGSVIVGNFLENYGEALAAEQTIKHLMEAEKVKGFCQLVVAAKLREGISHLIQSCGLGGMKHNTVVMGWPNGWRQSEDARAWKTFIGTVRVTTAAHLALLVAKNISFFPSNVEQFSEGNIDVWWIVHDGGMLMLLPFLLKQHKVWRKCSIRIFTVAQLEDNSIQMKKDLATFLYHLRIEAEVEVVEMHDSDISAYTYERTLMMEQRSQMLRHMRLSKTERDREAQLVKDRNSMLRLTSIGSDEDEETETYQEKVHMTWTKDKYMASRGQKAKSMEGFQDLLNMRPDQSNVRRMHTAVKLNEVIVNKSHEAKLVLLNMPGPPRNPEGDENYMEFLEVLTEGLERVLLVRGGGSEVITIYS
# Protocol: as §1, §2
structure (smiles),measurement,setting,value
"C[C@@H]1CN(c2nc3c(c(Nc4ccc(C5CCCCC5)cc4)n2)COC3)CCO1 [Compound A, (R)—N-(4-cyclohexylphenyl)-2-(2-methylmorpholino)-5,7-dihydrofuro[3,4-d]pyrimidin-4-amine]",activity of a panel of 144 protein kinases,[1],did not modify the activity
same,activity of KCC2-S940A construct,KCC2-S940A,increased the activity
same,EC50,KCC3,> 100 µM
